Measured values published in patent US7115707B2, “Amino acid sequences capable of facilitating penetration across a biological barrier” (Chiasma, Inc., priority 2002, dated 2006).
Several values for one entry are separate records, joined by “and”; a condition that tells them apart may be missing. Equal entries are not always repeated.

Tests used:
[1] = Heparin translocation: clotting time after rectal administration of penetration composition; assay type: in vivo, male BALB/c mice; conditions: for Clotting time, measured at follow times after injection: 5 min / Clotting time, measured at follow times after injection: 15 min / Clotting time, measured at follow times after injection: 30 min / Clotting time, measured at follow times after injection: 60 min / Clotting time, measured at follow times after injection: 90 min / Clotting time, measured at follow times after injection: 120 min / Clotting time, measured at follow times after injection: 150 min / Clotting time, measured at follow times after injection: 0: rectal 100 μl/mouse, heparin 10 mg/ml composition, one mouse per line; for Clotting time, measured at follow times after injection: 60 min / Clotting time, measured at follow times after injection: 90 min / Clotting time, measured at follow times after injection: 120 min / Clotting time, measured at follow times after injection: 150 min: * = clotting appeared but did not progress
Protocol: SEQ ID NO: 36 was hydrophobized via acylation of the free amino groups of the two lysine residues at the C-terminus of the penetrating peptide with a myristoyl. Acylation with myristoyl was achieved by incubating the peptide with myristoyl chloride in a molar ratio of 1:10, under basic pH conditions in the presence of appropriate solvents (benzyl benzoate and di-methyl formamide, with 1% bicarbonate). The hydrophobized peptide was then incorporated into the penetration composition, which further contained heparin, and the counter cation 1-butyl-3-methylimidazolium chloride (BMIC). Additional components of the penetration composition are specified in Table 5.
Four male BALB/c mice, 9–10 weeks old, were deprived of food, 18 hours prior to the experiment. The mice were anesthetized by i.p. injection of 0.05 ml of a mixture of 0.15 ml xylazine+0.85 ml of ketamin. The penetration composition was then rectally administered to the mice, 100μl/mouse, using a plastic tip covered with a lubricant. Penetration was assessed via measurement of clotting time, at different time intervals after heparin administration. Five minutes post administration the tip of the tail was cut and a 50 μl blood sample was drawn into a glass capillary. The capillary was broken at different time intervals, until clot formation was observed. This was repeated at 15, 30, 60, 90, 120 and 150 minutes post administration. The animals were subsequently sacrificed.
In similar experiments, a control peptide (SEQ ID NO:16), lacking the penetrating peptide-sequence, was similarly hydrophobized and incorporated into the penetration composition of Table 5 and then rectally administered to the mice.

[2] = Insulin translocation with HMIC as counter ion: blood glucose levels after i.p. or rectal administration (FIG. 3); assay type: in vivo, male BALB/c mice; conditions: 70 ul/mouse, 0.2 IU insulin
Protocol: SEQ ID NO: 36 (also called IBW-002V2) and SEQ ID NO: 16 (also called IBW-001) were hydrophobized via acylation of the free amino groups of the two lysine residues at the C-terminus of the penetrating peptides with a myristoyl. Acylation with myristoyl was achieved by incubating the peptide with myristoyl chloride in a molar ratio of 1:10, under basic pH conditions in the presence of appropriate solvents (benzyl benzoate and di-methyl formamide, with 1% bicarbonate). The hydrophobized peptides were then incorporated into the penetration composition, which further contained insulin, and the counter cation 1-hexyl-3-methylimidazolium chloride (HMIC). Additional components of the penetration composition are specified in Table 7.
Eight male BALB/c mice, 9–10 weeks old, were deprived of food, 18 hours prior to the experiment. The animals were divided into 4 groups. Each preparation was administered to 2 groups of mice either i.p. (70 ul/mouse, containing 0.2 IU insulin) or rectal (70 ul/mouse, containing 0.2 IU insulin). Blood glucose levels were measured at various time intervals post administration, in blood samples drawn from the tip of the tail. Glucose levels were plotted against time post insulin administration (See FIG. 3).

[3] = Insulin translocation with BKC as counter ion: blood glucose levels after i.p. or rectal administration (FIG. 4, Table 9); assay type: in vivo, male SD rats; conditions: rectal administration, rats, BKC counter ion (FIG. 4)
Protocol: SEQ ID NO: 36 (also called IBW-002V2) was hydrophobized via acylation of the free amino groups of the two lysine residues at the C-terminus of the penetrating peptide with a myristoyl. Acylation with myristoyl was achieved by incubating the peptide with myristoyl chloride in a molar ratio of 1:10, under basic pH conditions in the presence of appropriate solvents (benzyl benzoate and di-methyl formamide, with 1% bicarbonate). The hydrophobized peptide was then incorporated into the penetration composition, which further contained a lyophilizate of (1) insulin, (2) the counter cation Benzalkonium Chloride (BKC), and (3) phytic acid at a ratio of 1:0.5:0.5. Additional components of the penetration composition are specified in Table 8.
Twelve male SD rats, 160–190 gr, were deprived of food, 18 hours prior to the experiment. The animals were divided into groups. The preparations were administered as follows: Rats #1,2-rectal PBS 200 ul, rats #3,4-rectal 200 ul penetration composition as specified above without peptide (5 IU insulin), rat #5-i.p. 200 ul penetration composition with peptide (1 IU insulin), rats #6,7-rectal 200 ul penetration composition with peptide (5 IU insulin). Blood glucose levels were measured at various time intervals post administration, in blood samples drawn from the tip of the tail. Glucose levels were plotted against time post insulin administration (See FIG. 4).

| Substance | Clotting time, measured at follow times after injection: 5 min [1] | Clotting time, measured at follow times after injection: 15 min [1] | Clotting time, measured at follow times after injection: 30 min [1] | Clotting time, measured at follow times after injection: 60 min [1] | Clotting time, measured at follow times after injection: 90 min [1] | Clotting time, measured at follow times after injection: 120 min [1] | Clotting time, measured at follow times after injection: 150 min [1] | average clotting time ([1]; rectal, heparin composition of Table 5, compared to the full conjugate of the penetrating peptide) | Clotting time, measured at follow times after injection: 0 [1] | blood glucose levels ([2]; i.p.) | blood glucose levels ([2]; rectal) | blood glucose levels [3] |
| --- | --- | --- | --- | --- | --- | --- | --- | --- | --- | --- | --- | --- |
| GGKGGK (Linker) [SEQ ID NO: 16, reference compound] | 1′ | 1′ | 2′ | 5′ | 4′ | 2′ | 3′ | only slightly elongated | 1′ | significant drop | No change |  |
| AcMYYDITLALAGICQSARLVQQLAGGGKGGKNH2 (Ac-MYYDITLALAGICQSARLVQQLAGGGKGGK-NH2) [SEQ ID NO: 36, penetrating peptide] | 1′ (2×) and 2′ (2×) | 1.5′ and 3′ and 1′ (2×) | 1.5′ (2×) and 2′ and 3′ | 8′* and 9′* and 2.5′ and 6′ | 9′* (2×) and 7′* and 5′ | 15′* and 7′* and 3′ and 8′* | 17′* and 9′* and 4′ and 6′ |  | 1.5′ (2×) and 1′ and 2.5′ | dropped gradually and significantly | dropped gradually and significantly | dropped gradually and significantly |
